Values of other authors, collected in patent US20230118497A1, “PYRAZOLE-CONTAINING POLYCYCLIC DERIVATIVE INHIBITOR, PREPARATION METHOD THEREFOR AND APPLICATION THEREOF” (Shanghai Hansoh Biomedical Co., Ltd., priority 2019, published 2023).

Columns and labels:
P2X3/P2X2/3 = conditions: background; cited from earlier work
[1] = phase 2 RELIEF trial, patients with refractory chronic cough, any dose; cited from earlier work
[2] = phase I clinical trials; cited from earlier work

CNC(=O)c1cc(F)c(-c2nc3cc(C)ccn3c2C[C@H]2CN(C(=O)OC)CCO2)c(F)c1 [BLU5937]
selectivity to P2X3/P2X2/3 (P2X3/P2X2/3): high selectivity
primary endpoint of placebo-adjusted reduction in cough frequency [1]: failed to achieve statistical significance
side effects [2]: no side effects such as taste side effects appeared
